Results taken from PubChem BioAssay (NCI).
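Growth conditions: 96-well plates. Treatment: test compound, 48 hours, 5 concentrations. Analysis: linear interpolation between bracketing concentrations; unreached endpoints set to highest concentration. GI50 = concentration required for 50% inhibition of growth. At the TGI there is no net growth.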

Columns and labels:
Assay in all cases: NCI-60 cell line screen, 48 h
LOX IMVI melanoma = test system: LOX IMVI melanoma
786-0 renal = test system: 786-0 renal
SW-620 colon = test system: SW-620 colon
ACHN renal = test system: ACHN renal
CAKI-1 renal = test system: CAKI-1 renal
OVCAR-3 ovarian = test system: OVCAR-3 ovarian
NCI-H460 lung = test system: NCI-H460 lung
SK-MEL-2 melanoma = test system: SK-MEL-2 melanoma
HL-60(TB) leukemia = test system: HL-60(TB) leukemia
MCF7 breast = test system: MCF7 breast

| Structure (SMILES) | TGI (LOX IMVI melanoma) [µM] | TGI (786-0 renal) [µM] | TGI (SW-620 colon) [µM] | TGI (ACHN renal) [µM] | TGI (CAKI-1 renal) [µM] | TGI (OVCAR-3 ovarian) [µM] | TGI (NCI-H460 lung) [µM] | TGI (SK-MEL-2 melanoma) [µM] | TGI (HL-60(TB) leukemia) [µM] | GI50 (LOX IMVI melanoma) [µM] | GI50 (786-0 renal) [µM] | GI50 (SW-620 colon) [µM] | GI50 (ACHN renal) [µM] | GI50 (CAKI-1 renal) [µM] | GI50 (OVCAR-3 ovarian) [µM] | GI50 (NCI-H460 lung) [µM] | GI50 (MCF7 breast) [µM] | TGI (MCF7 breast) [µM] | GI50 (SK-MEL-2 melanoma) [µM] | GI50 (HL-60(TB) leukemia) [µM] |
| --- | --- | --- | --- | --- | --- | --- | --- | --- | --- | --- | --- | --- | --- | --- | --- | --- | --- | --- | --- | --- |
| Nc1cccc(C(=O)/C=C/c2ccccc2O)c1 | > 100 | > 100 | 29.6 | > 100 | > 100 | > 100 | > 100 | > 100 | 46.9 |  |  |  |  |  |  |  |  |  |  |  |
| Cc1cccc(NC(=O)CSc2nnc(-c3ccc(N=Cc4ccc(Cl)cc4)cc3)o2)c1 | > 100 | > 100 | > 100 | > 100 |  |  | > 100 | > 100 | > 100 |  |  |  |  |  |  |  |  |  |  |  |
| O=C(Cc1csc2nc(-c3ccc(Br)cc3)cn12)N/N=C/c1ccccc1O | 13 | 17.7 | 17.2 | 6.3 | 2.4 | 15.1 | > 100 | 53.8 |  | 3.47 | 4.68 | 3.98 | 1.57 | 0.397 | 3.22 | 15.7 | 13.2 | > 100 | 21.1 |  |
| Cc1cc2nc3c(C(OC4OC(CO)C(O)C(O)C4O)C(O)CO)nn(-c4ccc(F)cc4)c3nc2cc1C (configuration not stated) | > 100 | > 100 |  | > 100 |  | > 100 | > 100 |  |  |  |  |  |  |  |  |  |  |  |  |  |
| Cc1cn([C@H]2CN(O)C[C@@H](CO)O2)c(=O)[nH]c1=O |  | > 100 | > 100 | > 100 | > 100 |  | > 100 | > 100 | > 100 |  |  |  |  |  |  |  |  | > 100 |  |  |
| C=C(/C=C/C=C(\CO)CCC=C(C)C)[C@H]1CCC2([C@H](CCCO)/C(=C(/C)C=O)CC[C@]2(C)O)[C@H]1O (some centres not stated) | > 100 | > 100 | > 100 | > 100 | > 100 | > 100 | > 100 | > 100 | > 100 |  |  |  |  |  |  |  |  |  |  |  |
| O=C(CC/C(CC(=O)c1ccc(Cl)cc1)=N\O)Nc1cccc(Cl)c1 | > 100 | > 100 | > 100 | > 100 | > 100 | > 100 | > 100 | > 100 |  |  |  |  |  |  |  |  |  |  |  |  |
| Cc1ccccc1NC(=O)C(=O)CC(=O)c1sc(-n2nc(-c3ccccc3)cc2-c2ccccc2)nc1C | > 100 | > 100 | > 100 | > 100 | > 100 | > 100 | > 100 | > 100 | > 100 |  |  |  |  |  |  |  |  |  |  |  |
| O=C(Cn1ccnc1[N+](=O)[O-])NCc1ccc(F)cc1 | > 100 | > 100 | > 100 | > 100 | > 100 | > 100 | > 100 | > 100 | > 100 |  |  |  |  |  |  |  |  |  |  |  |
| COc1ccc(/C(C#N)=C2/O/C(=N/N)C(c3ccc(OC)c(OC)c3)C2=O)cc1OC (configuration not stated) | > 100 | > 100 | > 100 | > 100 | > 100 | > 100 |  | > 100 | > 100 |  |  |  |  |  |  |  |  |  |  |  |
| COc1ccc(C2C(C(=O)O)=C(COC(C)=O)Oc3cc4c(cc32)OCO4)c(OC)c1 (configuration not stated) | > 100 | > 100 | > 100 | > 100 | > 100 | > 100 | > 100 | > 100 | > 100 |  |  |  |  |  |  |  |  |  |  |  |
| COC(=O)C1C(=O)NC2(C)CC1c1ccccc1O2 (configuration not stated) | > 100 | > 100 | > 100 | > 100 | > 100 | > 10 | > 100 | > 100 | > 100 |  |  |  |  |  |  |  |  |  |  |  |
| C#CCN(CCCOc1ccc(Cl)cc1Cl)CCCSC(=O)CCCCCN1/C(=C\C=C2/CCCC(/C=C/C3=[N+](CCCCCC(=O)[O-])c4ccccc4C3(C)C)=C2Cl)C(C)(C)c2ccccc21 | 2.83 | 3.5 | 5.44 | 7.5 |  | 3.31 | 5.01 | 4.2 | 4.79 | 1.46 | 1.78 | 1.65 | 2.65 |  | 1.45 | 1.77 | 1.24 | 3.53 | 1.77 | 1.62 |
| O=C(O)c1cc2ccc(Cl)cc2c(O)c1C1=CCCCC1 | > 100 | > 100 | > 100 | > 100 | 96.4 | > 100 | > 100 | 63.8 | > 100 |  |  |  |  |  |  |  |  |  |  |  |
| CCOC(=O)C(=O)Nc1nc2ccc(OC)cc2s1 | > 100 | > 100 | > 100 | > 100 | > 100 | > 100 | > 100 | > 100 | > 100 |  |  |  |  |  |  |  |  |  |  |  |
| O=C(Nc1c(Cl)cc([N+](=O)[O-])cc1Cl)C(=O)C(C(=O)c1ccncc1)C1OC(=O)c2ccccc21 (configuration not stated) | > 100 | > 100 | > 100 | > 100 | > 100 | > 100 | > 100 |  | > 100 |  |  |  |  |  |  |  |  |  |  |  |
| COc1cc2c(c(OC)c1OC)-c1ccc(SC)c(=O)cc1C(CC(=O)Oc1ccccc1F)C2 (configuration not stated) | 4.28 | > 7.5 | > 7.5 | > 7.5 | > 7.5 | 0.0272 | > 7.5 | 0.125 | 1.37 |  |  |  |  |  |  |  |  |  |  |  |
| O=C(Nc1ccc(-n2cc(-c3ccncc3)c(-c3ccc(Cl)c(O)c3)n2)cc1)c1ccc(Cl)c(Cl)c1 |  | 4.3 | > 100 | > 100 | 21.3 | > 100 | > 100 | > 100 | 6.35 |  | 1.78 | 4.42 | 4.2 | 3.67 | > 100 | 3.09 | 4.63 | > 100 | 4.05 | 2.97 |
| Cc1ccc(-n2cc(/C(N)=N/O)c3ccccc3c2=O)cc1 | > 100 | > 100 | > 100 | > 100 |  | > 100 | > 100 |  | > 100 |  |  |  |  |  |  |  |  |  |  |  |
| CC[C@]1(O)C[C@@H]2CN(CCc3c([nH]c4ccccc34)[C@@](C(=O)OC)(c3cc4c(cc3OC)N(C)[C@H]3[C@@](O)(C(=O)OC)[C@H](OC(=O)CCCBr)[C@]5(CC)C=CCN6CC[C@]43[C@@H]65)C2)C1 |  | > 33.1 | > 100 | > 100 | 2.12 | < 0.0126 | > 100 | > 100 |  |  | 0.0535 | < 0.0146 | 0.108 | < 0.0206 | < 0.01 | 0.0245 | < 0.01 | > 100 | 0.0331 |  |
